From patent US20230096028A1, “BICYCLIC HETEROCYCLYL COMPOUNDS AND USES THEREOF” (Revolution Medicines, Inc., priority 2019, published 2023)

How the values were obtained:
[1] = test system: PC-9 cells (EGFR Ex19Del); test: Potency Assay: pERK (SOS1 pERK IC50 Assay, AlphaLISA SureFire Ultra p-ERK1/2); assay type: cell-based; settings: Homo sapiens; PC-9 cells (EGFR Ex19Del), 1 hour incubation, AlphaLISA p-ERK1/2; read-out: SOS1 pERK IC50
In short: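 PC-9 (EGFR Ex19Del) cells plated overnight, then treated 1 h at 37° C. with 10-point 3-fold dilutions (top 10 μM final) in duplicate. Lysate pERK1/2 measured by AlphaLISA SureFire Ultra; IC50 from 4-parameter sigmoidal fit.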

[2] = biological target: T1, SOS1 catalytic domain (residues 564-1049) (Homo sapiens, UniProt Q07889); test: Mode of Action Assay: inhibition of SOS1 nucleotide exchange activity (SOS1 TR-FRET IC50 Assay)
T1 sequence (Q07889 564-1049): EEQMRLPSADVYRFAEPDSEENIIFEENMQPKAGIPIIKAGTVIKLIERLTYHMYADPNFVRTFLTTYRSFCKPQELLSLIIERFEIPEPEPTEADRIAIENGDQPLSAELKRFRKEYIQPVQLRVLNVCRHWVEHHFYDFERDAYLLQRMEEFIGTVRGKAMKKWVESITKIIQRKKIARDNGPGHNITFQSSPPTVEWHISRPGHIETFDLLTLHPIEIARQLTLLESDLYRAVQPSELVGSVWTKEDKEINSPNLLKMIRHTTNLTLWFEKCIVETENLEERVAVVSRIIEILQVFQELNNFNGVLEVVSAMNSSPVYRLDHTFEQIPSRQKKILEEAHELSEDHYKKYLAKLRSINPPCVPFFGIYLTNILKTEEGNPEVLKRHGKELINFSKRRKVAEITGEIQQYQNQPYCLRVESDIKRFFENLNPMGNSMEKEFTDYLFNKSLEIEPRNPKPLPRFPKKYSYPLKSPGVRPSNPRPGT

[3] = biological target: T1, SOS1 catalytic domain (residues 564-1049); test: Potency Assay: binding affinity to SOS1 using Surface Plasmon Resonance (SPR); parameters: SOS1 catalytic domain (residues 564-1049) immobilized on a sensor chip; settings: immobilized SOS1 catalytic domain (residues 564-1049), read-out: SOS1 SPR Equilibrium Kd
Experimental: Data was reported as equilibrium dissociation constant (Kd) values.
Using a GE Biacore 8K SPR instrument, avi-tagged SOS1 catalytic domain protein was immobilized to a level of approximately 6000 response units (RU) on a streptavidin-coated SPR sensor chip in assay buffer containing 0.01 M HEPES, 0.15 M NaCl and 0.05% v/v Surfactant P20. […] For each test compound, a separate 0 μM sample was generated for use during subsequent double reference subtraction. Serially for each test compound, individual dilution samples were flowed over the immobilized SOS1 protein at a flow rate of 50 μL/minute to monitor the association with SOS1. Dissociation of bound test compound from the SOS1 protein was immediately monitored by flowing assay buffer over the sensor surface and monitoring the decrease in binding signal back to the baseline level seen in the absence of compound. This was repeated for all compound dilutions in each series. The binding level response for each test compound concentration was noted immediately prior to the end of the association phase, and a secondary plot generated showing binding response level versus test compound concentration generated for each compound dilution series.

Row | SMILES | IC50 [1] | IC50 [2] | Kd [3]
1 | C[C@@H](Nc1nc(Cl)nc2c1CN(C(=O)N1CCOCC1)C2)c1cccc(C(F)(F)F)c1F [Example 496] | < 1000 nM | < 1000 nM | > 400 nM
2 | C[C@@H](Nc1nc(Cl)nc2c1CN(C(=O)[C@@H]1COCCN1)C2)c1cccc(C(F)F)c1F [Example 309] | < 1000 nM | < 1000 nM | < 400 nM
3 | C[C@@H](Nc1nc(Cl)nc2c1CN(C(=O)C1C3CNCC31)C2)c1cc(N)cc(C(F)(F)F)c1 (some centres unmarked) [Example 266] | > 1000 nM | < 1000 nM | < 400 nM
4 | C[C@@H](Nc1nc(Cl)nc2c1CN(C(=O)N1CCOc3ncccc31)C2)c1cc(N)cc(C(F)(F)F)c1 [Example 365] | < 1000 nM | < 1000 nM | < 400 nM
5 | C[C@@H](Nc1nc(Cl)nc2c1CN(C(=O)N1CCN(C3COC3)CC1)C2)c1cccc(C(F)F)c1F [Example 383] | < 1000 nM | < 1000 nM | < 400 nM
6 | C[C@@H](Nc1nc(Cl)nc2c1CN(S(=O)(=O)C1CC1)C2)c1cc(N)cc(C(F)(F)F)c1 [Example 52] | < 1000 nM | < 1000 nM | < 400 nM
7 | C[C@@H](Nc1nc(Cl)nc2c1CN(C(=O)C1(F)CCN(C3COC3)CC1)C2)c1cccc(C(F)F)c1F [Example 331] | < 1000 nM | < 1000 nM | < 400 nM
8 | C[C@@H](Nc1nc(Cl)nc2c1CN(C(=O)[C@H]1CNCCO1)C2)c1cccc(C(F)F)c1F [Example 307] | < 1000 nM | < 1000 nM | < 400 nM
9 | C[C@@H](Nc1nc(Cl)nc2c1CN(C(=O)c1cnccn1)CC2)c1cc(N)cc(C(F)(F)F)c1 [Example 246] | > 1000 nM | > 1000 nM | > 400 nM
10 | C[C@@H](Nc1nc(Cl)nc2c1CN(C(=O)N1CCNC(C(F)(F)F)C1)C2)c1cccc(C(F)(F)F)c1 (some centres unmarked) [Example 363] | < 1000 nM | < 1000 nM | < 400 nM
11 | C[C@@H](Nc1nc(Cl)nc2c1CC(C(=O)N1CCOCC1)CC2)c1cc(N)cc(C(F)(F)F)c1 (stereo partly drawn) [Example 165, N-[(1R)-1-[3-amino-5-(trifluoromethyl)phenyl]ethyl]-2-chloro-6-(morpholine-4-carbonyl)-5,6,7,8-tetrahydroquinazolin-4-amine] | < 1000 nM | < 1000 nM | < 400 nM
12 | C[C@@H](Nc1nc(Cl)nc2c1CN(C(=O)N1CCc3ccncc31)C2)c1cc(N)cc(C(F)(F)F)c1 [Example 142] | < 1000 nM | < 1000 nM | < 400 nM
13 | CC(CC(=O)N1Cc2nc(Cl)nc(N[C@H](C)c3cccc(C(F)F)c3F)c2C1)N1CCNCC1 (some centres unmarked) [Example 296] | < 1000 nM | < 1000 nM | < 400 nM
14 | C[C@@H](Nc1nc(Cl)nc2c1CN(C(=O)c1cc(-n3ccnc3)ccn1)C2)c1cc(N)cc(C(F)(F)F)c1 [Example 104] | < 1000 nM | < 1000 nM | < 400 nM
15 | COc1cc(C(=O)N2CCc3nc(Cl)nc(N[C@H](C)c4cc(N)cc(C(F)(F)F)c4)c3C2)nc(OC)n1 [Example 229] | > 1000 nM | > 1000 nM | > 400 nM
16 | Cc1nc2c(c(N[C@H](C)c3cc(N)cc(C(F)(F)F)c3)n1)CN(C(=O)N1CC(O)C1)C2 [Example 352] | > 1000 nM | – | < 400 nM

Row | SMILES | IC50 [1] | IC50 [2] | Kd [3]
17 | COc1cncc(C(=O)N2CCc3nc(Cl)nc(N[C@H](C)c4cc(N)cc(C(F)(F)F)c4)c3C2)n1 [Example 237] | > 1000 nM | – | > 400 nM
18 | C[C@@H](Nc1nnc(Cl)c2c1CN(C(=O)N1CCOCC1)C2)c1cc(N)cc(C(F)(F)F)c1 [Example 35, [1-[[(1R)-1-[3-amino-5-(trifluoromethyl)phenyl]ethyl]amino]-4-chloro-5,7-dihydropyrrolo[3,4-d]pyridazin-6-yl]-morpholino-methanone] | > 1000 nM | – | > 400 nM
19 | CNCc1ccccc1-c1ccc(C(C)Nc2nc(Cl)nc3c2CN(C(=O)N2CCOCC2)C3)s1 (centres unmarked) [Example 39, [2-chloro-4-[1-[5-[2-(methylaminomethyl)phenyl]-2-thienyl]ethylamino]-5,7-dihydropyrrolo[3,4-d]pyrimidin-6-yl]-morpholino-methanone] | < 1000 nM | – | < 400 nM
20 | Cc1nc2c(c(N[C@H](C)c3cc(N)cc(C(F)(F)F)c3)n1)CN(C(=O)N1CCN(C)CC1)C2 [Example 351] | < 1000 nM | – | < 400 nM
21 | C[C@@H](Nc1nc(Cl)nc2c1CN(C1CCOCC1)CC2)c1cc(N)cc(C(F)(F)F)c1 [Example 22, N-[(1R)-1-[3-amino-5-(trifluoromethyl)phenyl]ethyl]-2-chloro-6-tetrahydropyran-4-yl-7,8-dihydro-5H-pyrido[4,3-d]pyrimidin-4-amine] | < 1000 nM | – | < 400 nM
22 | CCc1cc(N)cc(C(C)Nc2nc(Cl)nc3c2CN(C(=O)N2CCOCC2)C3)c1 (centres unmarked) [Example 41, [4-[1-(3-amino-5-ethyl-phenyl)ethylamino]-2-chloro-5,7-dihydropyrrolo[3,4-d]pyrimidin-6-yl]-morpholino-methanone] | < 1000 nM | – | < 400 nM
23 | CNCc1ccccc1-c1cccc(C(C)Nc2nc(Cl)nc3c2CN(C(=O)N2CCOCC2)C3)c1 (centres unmarked) [Example 32, [2-chloro-4-[1-[3-[2-(methylaminomethyl)phenyl]phenyl]ethylamino]-5,7-dihydropyrrolo[3,4-d]pyrimidin-6-yl]-morpholino-methanone] | < 1000 nM | – | < 400 nM
24 | C[C@@H](Nc1nc(Cl)nc2c1CN(c1ncccc1N1CCOCC1)CC2)c1cc(N)cc(C(F)(F)F)c1 [Example 186, (R)—N-(1-(3-amino-5-(trifluoromethyl)phenyl)ethyl)-2-chloro-6-(3-morpholinopyridin-2-yl)-5,6,7,8-tetrahydropyrido[4,3-d]pyrimidin-4-amine] | > 1000 nM | – | > 400 nM
25 | C[C@@H](Nc1nc(Cl)nc2c1CN(S(=O)(=O)C1CCNCC1)C2)c1cc(N)cc(C(F)(F)F)c1 [Example 187] | > 1000 nM | – | < 400 nM
26 | Cc1nc2c(c(N[C@H](C)c3cc(N)cc(C(F)(F)F)c3)n1)CN(c1ccc(Br)cn1)C2 [Example 44, N-[(1R)-1-[3-amino-5-(trifluoromethyl)phenyl]ethyl]-6-(5-bromo-2-pyridyl)-2-methyl-5,7-dihydropyrrolo[3,4-d]pyrimidin-4-amine] | – | > 1000 nM | > 400 nM
27 | C[C@@H](Nc1nc(Cl)nc2c1CN(C(=O)c1cnc3cc[nH]c3c1)C2)c1cc(N)cc(C(F)(F)F)c1 [Example 90] | – | > 1000 nM | > 400 nM
28 | C[C@@H](Nc1nc(Cl)nc2c1CN(C(=O)N1CCc3ncccc3C1)C2)c1cc(N)cc(C(F)(F)F)c1 [Example 147] | – | > 1000 nM | < 400 nM
29 | COC1CN([C@@H]2CCc3nc(Cl)nc(N[C@H](C)c4cc(N)cc(C(F)(F)F)c4)c3C2)C1 [Example 431] | – | < 1000 nM | < 400 nM
30 | COC1(C(=O)N2Cc3nc(C(F)(F)CN)nc(N[C@H](C)c4cccc(C(F)F)c4F)c3C2)CCOCC1 [Example 488, 2-(2-amino-1,1-difluoroethyl)-N-[(1R)-1-[3-(difluoromethyl)-2-fluorophenyl]ethyl]-6-(4-methoxyoxane-4-carbonyl)-5H,6H,7H-pyrrolo[3,4-d]pyrimidin-4-amine] | – | < 1000 nM | < 400 nM
31 | C[C@@H](Nc1nc(Cl)nc2c1CN(C(=O)N1CCNc3ncccc31)C2)c1cccc(C(F)F)c1F [Example 425] | – | < 1000 nM | < 400 nM
